Experiment [1] relates to HepG2. Description: Cytotoxicity against human HepG2 cells assessed as cell viability at 20 uM measured after 48 hrs by MTT assay relative to control. In kind it is functional. The note with it: HepG2, 48 h, read-out: Activity. (In general: Tetrazolium assays rely on reduction of a dye to a coloured formazan, in cell work by metabolically active cells.)
For experiment [2], the system named is HeLa. Description: Cytotoxicity against human HeLa cells assessed as cell viability at 20 uM measured after 48 hrs by MTT assay relative to control. Format: functional. The note with it: read-out: Activity.
In experiment [3] the test system is MCF7. Description: Cytotoxicity against human MCF7 cells assessed as cell viability at 20 uM measured after 48 hrs by MTT assay relative to control. The note with it: MCF7, 48 h, read-out: Activity. Format: functional.
Experiment [4] deals with HL-60. In words: Cytotoxicity against human HL60 cells assessed as cell viability at 20 uM measured after 48 hrs by MTT assay relative to control. Format: functional. The note with it: HL-60, 48 h, read-out: Activity.
In experiment [5] the test system is HL-60. Description: Cytotoxicity against human HL60 cells assessed as reduction in cell viability measured after 48 hrs by MTT assay. Format: functional, cell-based. The note with it: HL-60, 48 h.

As usually defined, the IC50 is the point on the concentration scale where inhibition reaches its midpoint. For the compound `CCN(CC)c1ccc2cc(C(=O)NCCNC(=O)/C(=C/c3cc(OC)c(OC)c(OC)c3)c3ccc(C(F)(F)F)cc3)c(=O)oc2c1`, the viability at 20 µM is 98.9% in experiment [1], 74% in experiment [2], 79.1% in experiment [3] and 54.2% in experiment [4]. In addition, the half-maximal inhibitory concentration (IC50) in experiment [5] was over 25 µM.

Take `CCN(CC)c1ccc2cc(C(=O)NCCNC(=O)/C(=C/c3cc(OC)c(OC)c(OC)c3)c3ccc(OC)cc3)c(=O)oc2c1`: the viability at 20 µM in experiment [1] came out at 100%; in experiment [2], 75%; in experiment [3], 75.8%; in experiment [4], 29.4%. Also, in experiment [5], the IC50 was 13.8 µM.

`CCN(CC)c1ccc2cc(C(=O)NCCNC(=O)/C(=C/c3cc(OC)c(OC)c(OC)c3)c3ccc(F)cc3)c(=O)oc2c1`: the viability at 20 µM in experiment [1] was found to be 96%; in experiment [2] it was 84.7%; in experiment [3], 75.3%; in experiment [4], 68.3%. Moreover, in experiment [5], the IC50 was 18.8 µM.

As to `CCN(CC)c1ccc2cc(C(=O)NCCCCNC(=O)/C(=C/c3cc(OC)c(OC)c(OC)c3)c3ccc(OC)cc3)c(=O)oc2c1`, the viability at 20 µM in experiment [1] came out at 100%; in experiment [2], 75%; in experiment [3], 84.9%; in experiment [4], 51.3%.

For `CCN(CC)c1ccc2cc(C(=O)NCCCCCCNC(=O)/C(=C/c3cc(OC)c(OC)c(OC)c3)c3ccc(OC)cc3)c(=O)oc2c1`, the viability at 20 µM in experiment [1] was 100%; in experiment [2], 100%; in experiment [3], 100%; in experiment [4] it was 82.5%.

Regarding `CCN(CC)c1ccc2cc(C(=O)NCCNC(=O)/C=C/c3c(OC)cc(OC)cc3OC)c(=O)oc2c1`, the viability at 20 µM in experiment [1] turned out to be 75.4%; in experiment [2], 63.9%; in experiment [3], 72.1%; in experiment [4], 68.9%. For the same compound, the IC50 in experiment [5] is over 25 µM.

For the compound `CCN(CC)c1ccc2cc(C(=O)N3CCN(C(=O)/C=C/c4c(OC)cc(OC)cc4OC)CC3)c(=O)oc2c1`, the viability at 20 µM in experiment [1] worked out at 88.7%; in experiment [2], 78.2%; in experiment [3] it was 94%; in experiment [4], 75.3%.

Regarding `CCN(CC)c1ccc2cc(C(=O)NCCCCCCNC(=O)/C=C/c3ccc(OC)cc3)c(=O)oc2c1`, the viability at 20 µM in experiment [1] came to 76.6%; in experiment [2] it was 100%; in experiment [3], 87.8%; in experiment [4], 99.8%.

For `CCN(CC)c1ccc2cc(C(=O)N3CCN(C(=O)/C=C/c4ccc(OC)cc4)CC3)c(=O)oc2c1`, the viability at 20 µM in experiment [1] stood at 98.9%; in experiment [2] it was 81.6%; in experiment [3], 98.1%; in experiment [4] it was 85.6%.

For the compound `CCN(CC)c1ccc2cc(C(=O)NCCNC(=O)/C=C/c3cc(OC)c(OC)cc3OC)c(=O)oc2c1`, the viability at 20 µM in experiment [1] was 100%; in experiment [2], 72.6%; in experiment [3], 76.4%; in experiment [4], 48.2%. In addition, in experiment [5], the IC50 came to 22.9 µM.

Regarding `CCN(CC)c1ccc2cc(C(=O)N3CCN(C(=O)/C=C/c4cc(OC)c(OC)cc4OC)CC3)c(=O)oc2c1`, the viability at 20 µM in experiment [1] was found to be 99.6%; in experiment [2] it was 84.6%; in experiment [3], 91.6%; in experiment [4], 80.1%.

Regarding `CCN(CC)c1ccc2cc(C(=O)NCCNC(=O)/C(=C/c3cc(OC)c(OC)c(OC)c3)c3ccc(OC)c(F)c3)c(=O)oc2c1`, the viability at 20 µM in experiment [1] was found to be 100%; in experiment [2] it was 99.7%; in experiment [3], 100%; in experiment [4] it was 67.7%. The concentration for half-maximal inhibition (IC50) in experiment [5] is 15 µM.

As to `CCN(CC)c1ccc2cc(C(=O)N3CCN(C(=O)/C(=C/c4cc(OC)c(OC)c(OC)c4)c4ccc(OC)c(OC)c4)CC3)c(=O)oc2c1`, the viability at 20 µM is 82.1% in experiment [1], 97.8% in experiment [2], 100% in experiment [3] and 80.3% in experiment [4].

As for `CCN(CC)c1ccc2cc(C(=O)NCCNC(=O)CCc3cc(OC)c(OC)c(OC)c3)c(=O)oc2c1`, the viability at 20 µM in experiment [1] is 66.8%; in experiment [2] it was 67.4%; in experiment [3] it was 78.2%; in experiment [4], 80.4%. The IC50 in experiment [5] is over 25 µM.

Take `CCN(CC)c1ccc2cc(C(=O)N3CCN(C(=O)/C=C/c4cc(OC)c(OC)c(OC)c4)CC3)c(=O)oc2c1`: the viability at 20 µM in experiment [1] turned out to be 97.2%; in experiment [2] it was 82.6%; in experiment [3] it was 100%; in experiment [4] it was 74.5%.

As to `CCN(CC)c1ccc2cc(C(=O)NCCNC(=O)/C=C/c3ccc(OC)cc3)c(=O)oc2c1`, the viability at 20 µM is 68.8% in experiment [1], 71.8% in experiment [2], 80.7% in experiment [3] and 78.5% in experiment [4]. In addition, the IC50 in experiment [5] is over 25 µM.

Turning to `CCN(CC)c1ccc2cc(C(=O)NCCNC(=O)/C=C/c3cc(OC)c(OC)c(OC)c3)c(=O)oc2c1`, the viability at 20 µM turned out to be 72.9% in experiment [1], 61.4% in experiment [2], 72.4% in experiment [3] and 45.5% in experiment [4]. Also, the half-inhibitory concentration (IC50) in experiment [5] amounted to 23.3 µM.

As for `CCN(CC)c1ccc2cc(C(=O)NCCCCNC(=O)/C=C/c3cc(OC)c(OC)c(OC)c3)c(=O)oc2c1`, the viability at 20 µM was found to be 93.8% in experiment [1], 74.5% in experiment [2], 93.8% in experiment [3] and 56.3% in experiment [4].

With `CCN(CC)c1ccc2cc(C(=O)N3CCN(C(=O)/C(=C/c4cc(OC)c(OC)c(OC)c4)c4ccc(OC)cc4)CC3)c(=O)oc2c1`, the viability at 20 µM was determined as 100% in experiment [1], 100% in experiment [2], 100% in experiment [3] and 74.3% in experiment [4].

For the compound `CCN(CC)c1ccc2cc(C(=O)NCCCCCCNC(=O)/C=C/c3cc(OC)c(OC)c(OC)c3)c(=O)oc2c1`, the viability at 20 µM in experiment [1] came to 100%; in experiment [2], 72.2%; in experiment [3], 91%; in experiment [4], 43.5%.
